Data set [1] in a line: Straight perm of curly hair. Particulars: second agent (gel with 0.5% xanthan gum for the waters) oxidized 10 minutes. The protocol: The first agent used in straight perm was Standard of Hair […] Two Way Straight (UCL, Incheon). The second agent used in the perm was a mixture of Standard of Hair […] Two Way Straight (UCL, Incheon) and xanthan gum in each hydrogen water and electrolyzed water. Tap water was used to generate the used electrolyzed hydrogen water and electrolyzed water. […] To each of these, xanthan gum was added to 0.5% and mixed to form a gel. The perm process proceeded as follows. The first agent was applied to the hair and softened at 37° C. for 30 minutes. […] After the oxidation process was completed, the hair was washed, photographed, and measured.

Data set [2] in a line: Perm of brown hair, hydrogen water vs hydrogen peroxide as second agent. The following applies: 30 washes, hydrogen water 10 times at 2-minute intervals, hydrogen peroxide left 10 minutes. The protocol:
According to the method used in a general beauty salon using a rod, cysteine treatment as a reduction agent, intermediate washing, setting, oxidation agent treatment, and measurement after washing were performed in the order. Brown hair was treated with a reduction agent (Hair 119 Clinic SuBoon Perm, Eson Chemical, Korea) and left at 37° C. for 5 minutes. […] Then the hair was separated. After washing them once, the length of perm hair was measured. After that, the perm hair length was measured when repeatedly washed 30 times, once a day (FIG. 3C). Natural Shampoo (Repit, Korea) was used as a cleaning agent. A method of preparing hydrogen water is as follows. After adding NaCl to distilled water to prepare a 0.05% NaCl solution, salted distilled water was boiled for about 5 minutes to remove dissolved oxygen as much as possible, and then quenched to 25° C. (water cooling).

A short description of data set [3]: Cold perm with 25°C electrolyzed water sprayed as second agent. Particulars: hydrogen peroxide as second agent; basis of commercial suitability; hair 27 cm.
Protocol: About 50 strands of natural black hair were fixed and cut to 27 cm in length and used in the experiment. The perm process was performed as follows. The natural black hair was fixed and washed according to the above standards. After washing, the dried hair bundle was reduced by treatment with the first agent (Hair 119 Clinic SuBoon Perm, Eson Chemical, Korea) at 37° C. for 25 minutes. After the reduction process, the first agent was removed by washing with distilled water to increase the reproducibility of the wave efficiency. […] After the application was finished, the rod was removed.

For `OO` [hydrogen peroxide], in data set [1], the “result of straight perm treatment” value is given as “curly hair was well straightened”. The sagging of wave entry in data set [2] is reported as “sagging was seen in 30 washes”. Besides, in data set [3], the “length of the perm hair after washing once” value is recorded as “about 22 cm”. For the same molecule, the “split ends / hair surface” value (bleached, dyed hair after perm) was “had split ends”. Moreover, the dye eluted (washing once after the perm treatment, from L value) is recorded as 11.43%.

Source of the values: patent publication US20220322803A1 (KONKUK UNIVERSITY INDUSTRIAL COOPERATION CORP, priority 2019, published 2022).
